# Laboratory results reported in ChEMBL document CHEMBL1122146, “Conformation-activity study of methadone and related compounds” (J Med Chem, 1982).
# Target: Mu-type opioid receptor (Cavia porcellus) (UniProt P97266)
# Assay: Evaluated for analgesic activity as effective dose
# Type: functional
# Mu-type opioid receptor (Cavia porcellus), sequence (P97266 whole entry): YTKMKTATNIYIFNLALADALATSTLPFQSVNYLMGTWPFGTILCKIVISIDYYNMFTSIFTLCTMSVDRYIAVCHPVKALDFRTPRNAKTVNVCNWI
row,SMILES,ED50 [mg/kg]
1,CC[C@H](O)C(c1ccccc1)(c1ccccc1)[C@@H](C)CN(C)C,60.7
2,CCC(=O)C(C[C@H](C)N(C)C)(c1ccccc1)c1ccccc1,25.7
3,CCC(O)C(C[C@@H](C)NC)(c1ccccc1)c1ccccc1 (some centres not stated),17.7
4,CC[C@H](O)C(C[C@H](C)N(C)C)(c1ccccc1)c1ccccc1,3.5
5,CCC(=O)C(CCN(C)C)(c1ccccc1)c1ccccc1,2.5
6,CCC(=O)C(c1ccccc1)(c1ccccc1)[C@@H](C)CN(C)C,49.8
7,CCC(=O)C(c1ccccc1)(c1ccccc1)[C@H](C)CN(C)C,1.2
8,CC[C@@H](O)C(C[C@@H](C)N(C)C)(c1ccccc1)c1ccccc1,24.7
9,CC[C@H](O)C(C[C@@H](C)N(C)C)(c1ccccc1)c1ccccc1,7.6
10,CC[C@@H](O)C(c1ccccc1)(c1ccccc1)[C@@H](C)CN(C)C,58.7
11,CCC(O)C(C[C@H](C)NC)(c1ccccc1)c1ccccc1 (some centres not stated),10.3
12,CC[C@@H](O)C(c1ccccc1)(c1ccccc1)[C@H](C)CN(C)C,91.7
13,CCC(=O)C(C[C@@H](C)N(C)C)(c1ccccc1)c1ccccc1,0.8
14,CC[C@H](O)C(c1ccccc1)(c1ccccc1)[C@H](C)CN(C)C,6.2
15,CC[C@@H](O)C(C[C@H](C)N(C)C)(c1ccccc1)c1ccccc1,63.7
16,CCC(=O)C(CC(C)N(C)C)(c1ccccc1)c1ccccc1 (stereo in doubt; threo),> 50
17,CCC(=O)C(CC(C)N(C)C)(c1ccccc1)c1ccccc1 (stereo in doubt; erythro),0.4
